Results published in patent US9085576B2 (AMGEN INC., priority 2013, dated 2015).

Tests used:
[1] = biological target: Beta Secretase enzyme (BACE) (Homo sapiens (Human), UniProt P56817); experiment: In vitro enzymatic BACE FRET assay; type: biochemical; settings: read-out: BACE1 Enzyme assay IC50
[2] = biological target: BACE (Homo sapiens (Human), UniProt P56817); experiment: In vitro BACE cell-based assay (Aβ40 in conditioned medium, sandwich ELISA)
[3] = biological target: Cathepsin D (Cat D) (Homo sapiens (Human), UniProt P07339); experiment: In vitro enzymatic Cathepsin D (Cat D) FRET assay; type: biochemical; settings: read-out: CatD IC50
Cathepsin D (Cat D), sequence (P07339 65-412, species assumed): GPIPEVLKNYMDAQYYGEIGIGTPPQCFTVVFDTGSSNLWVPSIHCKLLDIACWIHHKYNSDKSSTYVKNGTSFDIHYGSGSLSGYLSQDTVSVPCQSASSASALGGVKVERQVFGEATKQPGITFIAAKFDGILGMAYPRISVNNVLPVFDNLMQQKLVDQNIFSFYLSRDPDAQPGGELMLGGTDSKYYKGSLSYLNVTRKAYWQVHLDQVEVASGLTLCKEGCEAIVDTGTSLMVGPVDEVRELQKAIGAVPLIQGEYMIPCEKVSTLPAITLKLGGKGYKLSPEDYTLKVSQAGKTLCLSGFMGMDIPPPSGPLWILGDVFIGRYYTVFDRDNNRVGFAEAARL

Beta Secretase enzyme (BACE), sequence (P56817 46-501): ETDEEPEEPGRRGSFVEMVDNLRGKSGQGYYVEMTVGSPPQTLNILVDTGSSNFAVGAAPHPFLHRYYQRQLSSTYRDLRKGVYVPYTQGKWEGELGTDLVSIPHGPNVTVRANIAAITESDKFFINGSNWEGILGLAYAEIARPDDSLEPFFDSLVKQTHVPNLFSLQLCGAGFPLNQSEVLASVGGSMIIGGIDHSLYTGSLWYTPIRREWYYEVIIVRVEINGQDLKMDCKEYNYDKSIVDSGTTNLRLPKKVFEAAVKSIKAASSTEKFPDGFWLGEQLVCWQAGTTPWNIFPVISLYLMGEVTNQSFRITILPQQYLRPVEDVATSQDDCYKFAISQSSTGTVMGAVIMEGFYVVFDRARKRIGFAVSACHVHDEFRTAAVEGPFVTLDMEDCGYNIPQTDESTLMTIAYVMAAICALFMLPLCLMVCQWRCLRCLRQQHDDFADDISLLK
BACE, sequence (P56817 46-501, species assumed): as the sequence (P56817 46-501) above

Row | SMILES | IC50 [1] | IC50 [2] | IC50 [3]
1 | COCCOCC(=O)Nc1ccc(F)c([C@@]2(C(F)F)N=C(N)O[C@@H]3C[C@@H]32)c1 [Example 255, N-(3-((1R,5S,6R)-3-amino-5-(difluoromethyl)-2-oxa-4-azabicyclo[4.1.0]hept-3-en-5-yl)-4-fluorophenyl)-2-(2-methoxyethoxy) acetamide] | > 40 µM | > 15.6 µM | 666 µM
2 | NC1=N[C@@](c2cc(NC(=O)COc3ccccc3)ccc2F)(C(F)F)[C@H]2C[C@H]2O1 [Example 256, N-(3-((1R,5S,6R)-3-amino-5-(difluoromethyl)-2-oxa-4-azabicyclo[4.1.0]hept-3-en-5-yl)-4-fluorophenyl)-2-phenoxyacetamide] | 6.66 µM | 2.18 µM | 331 µM
3 | NC1=N[C@@](c2cc(NC(=O)C3CC(=O)C3)ccc2F)(C(F)F)[C@H]2C[C@H]2O1 [Example 258, N-(3-((1R,5S,6R)-3-amino-5-(difluoromethyl)-2-oxa-4-azabicyclo[4.1.0]hept-3-en-5-yl)-4-fluorophenyl)-3-oxocyclobutane-carboxamide] | 20.1 µM | 2.6 µM | 117 µM
4 | NC1=N[C@@](c2cc(NC(=O)C3CC3)ccc2F)(C(F)F)[C@H]2C[C@H]2O1 [Example 260, N-(3-((1R,5S,6R)-3-amino-5-(difluoromethyl)-2-oxa-4-azabicyclo[4.1.0]hept-3-en-5-yl)-4-fluorophenyl) cyclopropanecarboxamide] | 5.17 µM | 3.19 µM | 104 µM
5 | NC1=N[C@@](c2cc(NC(=O)c3cnc(Cl)cn3)ccc2F)(C(F)F)[C@H]2C[C@H]2O1 [Example 261, N-(3-((1R,5S,6R)-3-amino-5-(difluoromethyl)-2-oxa-4-azabicyclo[4.1.0]hept-3-en-5-yl)-4-fluorophenyl)-5-chloropyrazine-2-carboxamide] | 0.037 µM | 1.59 µM | 444 µM
6 | NC1=N[C@@](c2cc(NC(=O)C#Cc3ccccc3)ccc2F)(C(F)F)[C@H]2C[C@H]2O1 [Example 262, N-(3-((1R,5S,6R)-3-amino-5-(difluoromethyl)-2-oxa-4-azabicyclo[4.1.0]hept-3-en-5-yl)-4-fluorophenyl)-3-phenylpropiolamide] | 0.245 µM | 0.144 µM | 204 µM
7 | NC1=N[C@](c2cccc(NC(=O)c3ccc(Cl)cn3)c2)(C(F)F)[C@@H]2C[C@@H]2O1 [Example 264, N-(3-((1 S,5R,6S)-3-amino-5-(difluoromethyl)-2-oxa-4-azabicyclo[4.1.0]hept-3-en-5-yl)phenyl)-5-chloropicolinamide] | 35.9 µM | > 15.6 µM | > 400 µM
8 | Cc1cnc(C(=O)Nc2ccc(F)c([C@@]3(C(F)F)N=C(N)O[C@@H]4C[C@@H]43)c2)cn1 [Example 266, N-(3-((1R,5S,6R)-3-amino-5-(difluoromethyl)-2-oxa-4-azabicyclo[4.1.0]hept-3-en-5-yl)-4-fluorophenyl)-5-methylpyrazine-2-carboxamide] | 0.817 µM | 0.776 µM | 1160 µM
9 | NC1=N[C@](CF)(c2cc(NC(=O)c3ccc(Cl)cn3)ccc2Cl)[C@H]2C[C@H]2O1 [Example 270, N-(3-((1R,5S,6R)-3-amino-5-(fluoromethyl)-2-oxa-4-azabicyclo[4.1.0]hept-3-en-5-yl)-4-chlorophenyl)-5-chloropicolinamide] | 0.0669 µM | 0.0122 µM | 646 µM
10 | COc1cnc(C(=O)Nc2ccc(Cl)c([C@@]3(CF)N=C(N)O[C@@H]4C[C@@H]43)c2)cn1 [Example 272] | 0.143 µM | 0.0274 µM | 1730 µM
11 | COc1cnc(C(=O)Nc2ccc(Cl)c([C@]3(CF)N=C(N)O[C@H]4C[C@H]43)c2)cn1 [Example 273] | 36.3 µM | 2.66 µM | 1970 µM
12 | NC1=N[C@](CF)(c2cc(NC(=O)c3ccc(Br)cn3)ccc2Cl)[C@H]2C[C@H]2O1 [Example 274, N-(3-((1R,5S,6R)-3-amino-5-(fluoromethyl)-2-oxa-4-azabicyclo[4.1.0]hept-3-en-5-yl)-4-chlorophenyl)-5-bromopicolinamide] | 0.0322 µM | 0.012 µM | 538 µM
13 | NC1=N[C@@](CF)(c2cc(NC(=O)c3ccc(Br)cn3)ccc2Cl)[C@@H]2C[C@@H]2O1 [Example 275, N-(3-((1S,5R,6S)-3-amino-5-(fluoromethyl)-2-oxa-4-azabicyclo[4.1.0]hept-3-en-5-yl)-4-chlorophenyl)-5-bromopicolinamide] | 3.6 µM | 0.906 µM | 1130 µM
14 | N#Cc1ccc(C(=O)Nc2ccc(Cl)c([C@@]3(CF)N=C(N)O[C@@H]4C[C@@H]43)c2)nc1 [Example 277, N-(3-((1R,5S,6R)-3-amino-5-(fluoromethyl)-2-oxa-4-azabicyclo[4.1.0]hept-3-en-5-yl)-4-chlorophenyl)-5-cyanopicolinamide] | 0.0568 µM | 0.0192 µM | 1560 µM
15 | N#Cc1ccc(C(=O)Nc2ccc(Cl)c([C@]3(CF)N=C(N)O[C@H]4C[C@H]43)c2)nc1 [Example 278, N-(3-((1 S,5R,6S)-3-amino-5-(fluoromethyl)-2-oxa-4-azabicyclo[4.1.0]hept-3-en-5-yl)-4-chlorophenyl)-5-cyanopicolinamide] | 9.51 µM | 2.64 µM | 904 µM
16 | C#CCOc1cnc(C(=O)Nc2ccc(Cl)c([C@@]3(CF)N=C(N)O[C@@H]4C[C@@H]43)c2)cn1 [Example 279, N-(3-((1R,5S,6R)-3-amino-5-(fluoromethyl)-2-oxa-4-azabicyclo[4.1.0]hept-3-en-5-yl)-4-chlorophenyl)-5-(prop-2-yn-1-yloxy)pyrazine-2-carboxamide] | 0.0056 µM | 0.0086 µM | 124 µM
17 | C#CCOc1cnc(C(=O)Nc2ccc(Cl)c([C@]3(CF)N=C(N)O[C@H]4C[C@H]43)c2)cn1 [Example 280, N-(3-((1S,5R,6S)-3-amino-5-(fluoromethyl)-2-oxa-4-azabicyclo[4.1.0]hept-3-en-5-yl)-4-chlorophenyl)-5-(prop-2-yn-1-yloxy)pyrazine-2-carboxamide] | 4.78 µM | 2.89 µM | 1470 µM
18 | COc1ccc(C(=O)Nc2ccc(Cl)c([C@@]3(CF)N=C(N)O[C@@H]4C[C@@H]43)c2)nc1 [Example 282, N-(3-((1R,5S,6R)-3-amino-5-(fluoromethyl)-2-oxa-4-azabicyclo[4.1.0]hept-3-en-5-yl)-4-chlorophenyl)-5-methoxypicolinamide] | 0.196 µM | 0.0243 µM | 650 µM
19 | COc1cnc(C(=O)Nc2ccc(Cl)c([C@@]3(CF)N=C(N)O[C@@H]4C[C@@H]43)c2)c(Cl)c1 [Example 284, N-(3-((1R,5S,6R)-3-amino-5-(fluoromethyl)-2-oxa-4-azabicyclo[4.1.0]hept-3-en-5-yl)-4-chlorophenyl)-3-chloro-5-methoxypicolinamide] | 0.122 µM | 0.0149 µM | 752 µM
20 | CC#CCOc1cnc(C(=O)Nc2ccc(Cl)c([C@@]3(CF)N=C(N)O[C@@H]4C[C@@H]43)c2)cn1 [Example 285, N-(3-((1R,5S,6R)-3-amino-5-(fluoromethyl)-2-oxa-4-azabicyclo[4.1.0]hept-3-en-5-yl)-4-chlorophenyl)-5-(but-2-yn-1-yloxy)pyrazine-2-carboxamide] | 0.0022 µM | 0.0006 µM | 1830 µM
21 | NC1=N[C@@](c2cc(NC(=O)c3cccc(Cl)n3)ccc2F)(C(F)F)[C@H]2C[C@H]2O1 [Example 286, N-(3-((1R,5S,6R)-3-amino-5-(difluoromethyl)-2-oxa-4-azabicyclo[4.1.0]hept-3-en-5-yl)-4-fluorophenyl)-6-chloropicolinamide] | 1.57 µM | 1.12 µM | 725 µM
22 | NC1=N[C@@](c2cc(NC(=O)c3cc(Cl)ccn3)ccc2F)(C(F)F)[C@H]2C[C@H]2O1 [Example 287, N-(3-((1R,5S,6R)-3-amino-5-(difluoromethyl)-2-oxa-4-azabicyclo[4.1.0]hept-3-en-5-yl)-4-fluorophenyl)-4-chloropicolinamide] | 1.93 µM | 2.11 µM | 1630 µM
23 | CC(C)c1cccnc1C(=O)Nc1ccc(F)c([C@@]2(C(F)F)N=C(N)O[C@@H]3C[C@@H]32)c1 [Example 288, N-(3-((1R,5S,6R)-3-amino-5-(difluoromethyl)-2-oxa-4-azabicyclo[4.1.0]hept-3-en-5-yl)-4-fluorophenyl)-3-isopropylpicolinamide] | 3.35 µM | 2.22 µM | 1260 µM
24 | CC(C)c1cc(Cl)cnc1C(=O)Nc1ccc(F)c([C@@]2(C(F)F)N=C(N)O[C@@H]3C[C@@H]32)c1 [Example 289, N-(3-((1R,5S,6R)-3-amino-5-(difluoromethyl)-2-oxa-4-azabicyclo[4.1.0]hept-3-en-5-yl)-4-fluorophenyl)-5-chloro-3-isopropylpicolinamide] | 0.305 µM | 0.116 µM | 700 µM
25 | NC1=N[C@@](c2cc(NC(=O)c3ncc(Br)cc3C(F)F)ccc2F)(C(F)F)[C@H]2C[C@H]2O1 [Example 290, N-(3-((1R,5S,6R)-3-amino-5-(difluoromethyl)-2-oxa-4-azabicyclo[4.1.0]hept-3-en-5-yl)-4-fluorophenyl)-5-bromo-3-(difluoromethyl) picolinamide] | 0.0141 µM | 0.0222 µM | 252 µM
26 | NC1=N[C@@](c2cc(NC(=O)c3ccc(-c4ccccc4)cn3)ccc2F)(C(F)F)[C@H]2C[C@H]2O1 [Example 291, N-(3-((1R,5S,6R)-3-amino-5-(difluoromethyl)-2-oxa-4-azabicyclo[4.1.0]hept-3-en-5-yl)-4-fluorophenyl)-5-phenylpicolinamide] | 1.15 µM | 1.87 µM | 148 µM
27 | NC1=N[C@@](c2cc(NC(=O)c3ccccn3)ccc2F)(C(F)F)[C@H]2C[C@H]2O1 [Example 292, N-(3-((1R,5S,6R)-3-amino-5-(difluoromethyl)-2-oxa-4-azabicyclo[4.1.0]hept-3-en-5-yl)-4-fluorophenyl) picolinamide] | 0.3 µM | 0.279 µM | 690 µM
